Literature values in patent US20240252580A1, “AMINO ACID HYDRATION FORMULATION AND METHOD OF USE” (The Coca-Cola Company, priority 2021, published 2024).
Peptide text beside a SMILES is read from it.

Settings: for effect on sodium and water absorption from the human jejunum: perfusion technique; for dependence of sodium and water absorption on amino acid concentration: saturation not demonstrated over the range of concentrations

Structure (SMILES)	effect on sodium and water absorption from the human jejunum	dependence of sodium and water absorption on amino acid concentration
NCC(=O)NCC(=O)O [Gly-Gly, glycyl-glycine] (H-Gly-Gly-OH)	significant stimulation	–
NCC(=O)O [glycine]	significant stimulation	increased linearly with increasing concentration
C[C@H](N)C(=O)O [alanine]	significant stimulation	increased linearly with increasing concentration
C[C@H](NC(=O)CN)C(=O)O [Gly-Ala, glycyl-L-alanine] (H-Gly-Ala-OH)	significant stimulation	–
